Assay results reported in the OligoGym collection.
“And” between values parts separate entries of the source, which are not always exact repeats. Equal values may be shown once. HELM strings list units from the 5' end as sugar, base in round brackets, then linkage (d deoxyribose, r ribose, m 2'-O-methyl, p phosphodiester). Methylation of C is not given here. [moe] = 2'-O-(2-methoxyethyl) (MOE); [cEt] = constrained ethyl (cEt); [sp] = phosphorothioate linkage

Biological target: HBV
Conditions: ASO

Substance	target mRNA inhibition (HepG2, 0.0092593 µM)	target mRNA inhibition (HepG2, 0.0277778 µM)	target mRNA inhibition (HepG2, 0.07 µM)	target mRNA inhibition (HepG2, 0.0833333 µM)	target mRNA inhibition (HepG2, 0.25 µM)
RNA1{[moe](C)[sp].[moe](A)[sp].[moe](C)[sp].[moe](T)[sp].[moe](A)[sp].[moe](G)[sp].d(T)[sp].d(A)[sp].d(A)[sp].d(A)[sp].d(C)[sp].d(T)[sp].d(G)[sp].d(A)[sp].d(G)[sp].[moe](C)[sp].[moe](C)}$$$$V2.0	12%	40%	87% and 72%	42%	65%
RNA1{[moe](C)[sp].[moe](A)[sp].[moe](C)[sp].[moe](T)[sp].d(A)[sp].d(G)[sp].d(T)[sp].d(A)[sp].d(A)[sp].d(A)[sp].d(C)[sp].d(T)[sp].d(G)[sp].[moe](A)[sp].[moe](G)[sp].[moe](C)}$$$$V2.0			56% and 50%		
RNA1{[moe](C)[sp].[moe](A)[sp].[moe](G)[sp].[moe](A)[sp].[moe](G)[sp].[moe](G)[sp].d(T)[sp].d(G)[sp].d(A)[sp].d(A)[sp].d(G)[sp].d(C)[sp].d(G)[sp].d(A)[sp].d(A)[sp].[moe](G)[sp].[moe](T)}$$$$V2.0			81% and 58%		
RNA1{[moe](C)[sp].[moe](A)[sp].[moe](G)[sp].[moe](A)[sp].d(G)[sp].d(G)[sp].d(T)[sp].d(G)[sp].d(A)[sp].d(A)[sp].d(G)[sp].d(C)[sp].d(G)[sp].[moe](A)[sp].[moe](A)[sp].[moe](G)}$$$$V2.0			47% and 50%		
RNA1{[moe](C)[sp].[moe](A)[sp].d(A)[sp].d(T)[sp].d(T)[sp].d(T)[sp].d(A)[sp].d(T)[sp].d(G)[sp].d(C)[sp].d(C)[sp].[moe](T)[sp].[moe](A)[sp].[moe](C)[sp].[moe](A)[sp].[moe](G)}$$$$V2.0			27% and 25%		
RNA1{[moe](C)[sp].[moe](A)[sp].d(C)[sp].d(T)[sp].d(A)[sp].d(G)[sp].d(T)[sp].d(A)[sp].d(A)[sp].d(A)[sp].d(C)[sp].[moe](T)[sp].[moe](G)[sp].[moe](A)[sp].[moe](G)[sp].[moe](C)[sp].[moe](C)}$$$$V2.0			73% and 66%		
RNA1{[moe](C)[sp].[moe](A)[sp].d(C)[sp].d(T)[sp].d(A)[sp].d(G)[sp].d(T)[sp].d(A)[sp].d(A)[sp].d(A)[sp].d(C)[sp].[moe](T)[sp].[moe](G)[sp].[moe](A)[sp].[moe](G)[sp].[moe](C)}$$$$V2.0			52% and 53%		
RNA1{[moe](C)[sp].[moe](A)[sp].d(G)[sp].d(A)[sp].d(G)[sp].d(G)[sp].d(T)[sp].d(G)[sp].d(A)[sp].d(A)[sp].d(G)[sp].[moe](C)[sp].[moe](G)[sp].[moe](A)[sp].[moe](A)[sp].[moe](G)}$$$$V2.0			35% and 36%		
RNA1{[moe](C)[sp].[moe](C)[sp].[moe](A)[sp].[moe](C)[sp].[moe](T)[sp].d(G)[sp].d(A)[sp].d(A)[sp].d(C)[sp].d(A)[sp].d(A)[sp].d(A)[sp].d(T)[sp].d(G)[sp].[moe](G)[sp].[moe](C)}$$$$V2.0			55% and 44%		
RNA1{[moe](C)[sp].[moe](C)[sp].[moe](A)[sp].[moe](C)[sp].d(T)[sp].d(G)[sp].d(A)[sp].d(A)[sp].d(C)[sp].d(A)[sp].d(A)[sp].d(A)[sp].d(T)[sp].[moe](G)[sp].[moe](G)[sp].[moe](C)}$$$$V2.0			57% and 68%		
RNA1{[moe](C)[sp].[moe](C)[sp].[moe](A)[sp].d(A)[sp].d(T)[sp].d(T)[sp].d(T)[sp].d(A)[sp].d(T)[sp].d(G)[sp].d(C)[sp].d(C)[sp].d(T)[sp].[cEt](A)[sp].[cEt](C)[sp].[cEt](A)}$$$$V2.0			37% and 34%		
RNA1{[moe](C)[sp].[moe](C)[sp].[moe](G)[sp].[moe](C)[sp].[moe](A)[sp].d(G)[sp].d(T)[sp].d(A)[sp].d(T)[sp].d(G)[sp].d(G)[sp].d(A)[sp].d(T)[sp].d(C)[sp].[moe](G)[sp].[moe](G)[sp].[moe](C)}$$$$V2.0	5%	38%	86% and 76%	65%	86%
RNA1{[moe](C)[sp].[moe](C)[sp].[moe](G)[sp].[moe](C)[sp].d(A)[sp].d(G)[sp].d(T)[sp].d(A)[sp].d(T)[sp].d(G)[sp].d(G)[sp].d(A)[sp].d(T)[sp].[moe](C)[sp].[moe](G)[sp].[moe](G)[sp].[moe](C)}$$$$V2.0	0%	38%	87% and 74%	69%	86%
RNA1{[moe](C)[sp].[moe](C)[sp].[moe](G)[sp].[moe](C)[sp].d(A)[sp].d(G)[sp].d(T)[sp].d(A)[sp].d(T)[sp].d(G)[sp].d(G)[sp].d(A)[sp].d(T)[sp].[moe](C)[sp].[moe](G)[sp].[moe](G)}$$$$V2.0			76% and 71%		
RNA1{[moe](C)[sp].[moe](C)[sp].[moe](G)[sp].d(C)[sp].d(A)[sp].d(G)[sp].d(T)[sp].d(A)[sp].d(T)[sp].d(G)[sp].d(G)[sp].d(A)[sp].[moe](T)[sp].[moe](C)[sp].[moe](G)[sp].[moe](G)}$$$$V2.0	0%	23%	75% and 76%	56%	79%
RNA1{[moe](C)[sp].[moe](G)[sp].[moe](A)[sp].d(A)[sp].d(C)[sp].d(C)[sp].d(A)[sp].d(C)[sp].d(T)[sp].d(G)[sp].d(A)[sp].d(A)[sp].[moe](C)[sp].[moe](A)[sp].[moe](A)[sp].[moe](A)}$$$$V2.0			48% and 28%		
RNA1{[moe](C)[sp].[moe](G)[sp].[moe](G)[sp].[moe](G)[sp].d(C)[sp].d(A)[sp].d(A)[sp].d(C)[sp].d(A)[sp].d(T)[sp].d(A)[sp].d(C)[sp].d(C)[sp].[moe](T)[sp].[moe](T)[sp].[moe](G)}$$$$V2.0			48% and 65%		
RNA1{[moe](C)[sp].[moe](G)[sp].[moe](T)[sp].[moe](G)[sp].[moe](C)[sp].[moe](A)[sp].d(G)[sp].d(A)[sp].d(G)[sp].d(G)[sp].d(T)[sp].d(G)[sp].d(A)[sp].d(A)[sp].d(G)[sp].[moe](C)[sp].[moe](G)}$$$$V2.0			81% and 64%		
RNA1{[moe](C)[sp].[moe](G)[sp].[moe](T)[sp].d(G)[sp].d(C)[sp].d(A)[sp].d(G)[sp].d(A)[sp].d(G)[sp].d(G)[sp].d(T)[sp].d(G)[sp].d(A)[sp].[cEt](A)[sp].[cEt](G)[sp].[cEt](C)}$$$$V2.0			72% and 60%		
RNA1{[moe](C)[sp].[moe](G)[sp].d(A)[sp].d(A)[sp].d(C)[sp].d(C)[sp].d(A)[sp].d(C)[sp].d(T)[sp].d(G)[sp].d(A)[sp].[moe](A)[sp].[moe](C)[sp].[moe](A)[sp].[moe](A)[sp].[moe](A)[sp].[moe](T)}$$$$V2.0			55% and 36%		
RNA1{[moe](C)[sp].[moe](G)[sp].d(A)[sp].d(A)[sp].d(C)[sp].d(C)[sp].d(A)[sp].d(C)[sp].d(T)[sp].d(G)[sp].d(A)[sp].[moe](A)[sp].[moe](C)[sp].[moe](A)[sp].[moe](A)[sp].[moe](A)}$$$$V2.0			37% and 23%		
